Columns and labels:
Format in all cases: cell-based
BCL-XL [1] = target: T1, BCL-XL (Homo sapiens, UniProt Q07817); experiment: BCL-XL degradation assay, western blot in MOLT-4 cells, 16 h; details: for DC50: read-out: Bcl-xL WB in MOLT-4 degradation 16 h: Mean external-Abs DC50
T1 construct: endogenous in cells; host or cells: MOLT-4
How it was run: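 Infrared-imaged western blots quantified BCL-xL (normalised against beta-actin/GAPDH) after 16 hr, 37° C exposure of MOLT-4 cells to 0.02-10 μM compound; results given as DC50 and Dmax % bins.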

BCL-XL [2] = target: T1, BCL-XL; experiment: Bcl-xL ELISA degradation in MOLT-4 cells, 6 h; details: for DC50: read-out: Bcl-xL ELISA in MOLT-4 degradation 6 h: Mean external-Abs DC50
Procedure: The letter codes for BCL-XL DC50 include: A (<0.01 μM); B (0.01-0.1 μM); C (>[…]); D (>0.5-1.0 μM); and E (>1.0 μM). The letter codes for Dmax % include A (>75%); B (50 to 75%); C (<50%).

MOLT-4 cells = experiment: CTG (CellTiter-Glo) cell viability assay, MOLT-4; details: Homo sapiens, MOLT-4, 72 h, 3 day incubation, read-out: CTG Cell Viability Assay - MOLT-4 3 day: Average external-IC50
Procedure: Compound-mediated viability effect on MOLT-4 and Caki-2 was quantitatively determined using the CellTiter-Glo® Luminescent Cell Viability Assay kit from Promega (Catalog number G7570) following manufacturer's recommended procedures. Briefly, MOLT-4 and Caki-2 cells were seeded into 384 well plates (Grenier Bio-One, Catalog number 781080) with a density of 10,000 cells per well. Compounds were then added to the assay plate with final top concentration of 10 μM and 1:3 dilution series with total of 9 doses. The final DMSO concentration is normalized to 0.2%. The assay plates were incubated at 37° C., for 3 days under 5% CO2. Then the assay plate was equilibrated at room temperature for 10 minutes. To determine cell viability, 30 uL CellTiter Glo reagent was added to each well and the assay plate was centrifuged at 1000 rpm for 30 second, incubated at room temperature for 10 min, and analyzed by detecting the luminescence using a multimode plate reader (EnVision 2105, PerkinElmer). The data was then analyzed by software Prism 7.0 from GraphPad and the dose response curves are fit using a three-parameter logistic equation to calculate IC50.
The letter codes for MOLT-4 IC50 include: A (<0.1 μM); B (0.1-1.0 μM); C (>1.0-3.0 μM); and D (>3.0 μM). The letter codes for Caki-2 IC50 include: A (<0.1 μM); B (0.1-1.0 μM); C (>1.0-10.0 μM); and D (>10.0 μM).

[3] = western blot, MOLT-4 cells, 16 h, read-out: Bcl-xL WB in MOLT-4 degradation 16 h: Average Dmax %
[4] = western blot, MOLT-4 cells, 16 h

T1 sequence (Q07817 whole entry): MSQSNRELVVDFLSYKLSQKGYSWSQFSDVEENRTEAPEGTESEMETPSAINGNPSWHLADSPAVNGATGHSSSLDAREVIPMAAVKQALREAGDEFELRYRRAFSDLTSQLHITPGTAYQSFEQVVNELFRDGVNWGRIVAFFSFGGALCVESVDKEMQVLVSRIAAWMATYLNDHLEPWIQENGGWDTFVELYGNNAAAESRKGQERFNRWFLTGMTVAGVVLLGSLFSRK

| Structure (SMILES) | Dmax (BCL-XL [1]; [3]) [%] | DC50 (BCL-XL [1]; [4]) [nM] | Dmax (BCL-XL [2]) [%] | DC50 (BCL-XL [2]) [nM] | IC50 (MOLT-4 cells) [nM] | Dmax (BCL-XL [1]; MOLT-4, read-out: Bcl-xL WB in MOLT-4 degradation 16 h: Average Dmax %) [%] |
| --- | --- | --- | --- | --- | --- | --- |
| Cc1ncsc1-c1ccc([C@H](C)NC(=O)[C@@H]2C[C@@H](O)CN2C(=O)[C@@H](c2cc(N3CC4(CN(c5ccc(S(=O)(=O)NC(=O)c6nc(N7CCc8cccc(C(=O)Nc9nc%10ccccc%10s9)c8C7)ccc6-c6cnn(CC7CCCCC7)c6C)cc5)C4)C3)no2)C(C)C)cc1 [I-226] | > 75 | < 10 | 50 to 75 | 10 to 100 | – | – |
| Cc1cc(N2CCC(C(=O)N[C@H](C(=O)N3C[C@H](O)C[C@H]3C(=O)N[C@@H](C)c3ccc(-c4scnc4C)cc3)C(C)(C)C)CC2)ccc1S(=O)(=O)NC(=O)c1nc(N2CCc3cccc(C(=O)Nc4nc5ccccc5s4)c3C2)ccc1-c1cnn(CC2CCCCC2)c1C [I-275] | > 75 | < 10 | > 75 | 10 to 100 | – | – |
| Cc1cc(N(C)c2ccc(-c3cnn(CC45CC6CC(CC(C6)C4)C5)c3C)c(C(=O)NS(=O)(=O)c3ccc(N4CCC(C(=O)N[C@H](C(=O)N5C[C@H](O)C[C@H]5C(=O)N[C@@H](C)c5ccc(-c6scnc6C)cc5)C(C)(C)C)CC4)cc3)n2)nnc1Nc1nc2ccccc2s1 [I-246] | > 75 | < 10 | > 75 | 10 to 100 | – | – |
| Cc1ncsc1-c1ccc([C@H](C)NC(=O)[C@@H]2C[C@@H](O)CN2C(=O)[C@@H](NC(=O)COCCN2CCC(NC(=O)c3nc(N4CCc5cccc(C(=O)Nc6nc7ccccc7s6)c5C4)ccc3-c3cnn(CC4CCCCC4)c3C)CC2)C(C)(C)C)cc1 [I-152] | – | – | – | – | 1000 to 3000 | – |
| Cc1ncsc1-c1ccc([C@@H](C)NC(=O)[C@@H]2C[C@@H](O)CN2C(=O)[C@@H](NC(=O)CCCCCC(=O)N(C)CCCC2(Cn3ncc(-c4ccc(N5CCc6cccc(C(=O)Nc7nc8ccccc8s7)c6C5)nc4C(=O)O)c3C)CCCCC2)C(C)(C)C)cc1 [I-162] | – | – | – | – | 100 to 1000 | – |
| Cc1ncsc1-c1ccc(CNC(=O)[C@@H]2C[C@@H](O)CN2C(=O)[C@@H](NC(=O)C2(F)CC2)C(C)(C)C)c(OCCCCC(=O)N2CCN(CCCC3(Cn4ncc(-c5ccc(N6CCc7cccc(C(=O)Nc8nc9ccccc9s8)c7C6)nc5C(=O)O)c4C)CCCCC3)CC2)c1 [I-169] | – | – | – | – | 100 to 1000 | – |
| Cc1cc(N(CCCC(=O)N(C)CCOCC(=O)N[C@H](C(=O)N2C[C@H](O)C[C@H]2C(=O)N[C@@H](C)c2ccc(-c3scnc3C)cc2)C(C)(C)C)c2ccc(-c3cnn(CC4CCCCC4)c3C)c(C(=O)O)n2)nnc1Nc1nc2ccccc2s1 [I-156] | – | – | – | – | > 3000 | – |
| Cc1ncsc1-c1ccc([C@H](C)NC(=O)[C@@H]2C[C@@H](O)CN2C(=O)[C@@H](NC(=O)C2CCN(c3ccc(S(=O)(=O)NC(=O)c4nc(N5CCc6cccc(C(=O)Nc7nc8cccnc8s7)c6C5)ccc4-c4cnn(CC5CCCCC5)c4C)cc3)CC2)C(C)(C)C)cc1 [I-241] | > 75 | < 10 | > 75 | 10 to 100 | – | – |
| Cc1ncsc1-c1ccc(CNC(=O)[C@@H]2C[C@@H](O)CN2C(=O)[C@@H](NC(=O)C2(F)CC2)C(C)(C)C)c(OCCN2CCN(CC[C@H](CSc3ccccc3)Nc3ccc(S(=O)(=O)NC(=O)c4csc(N5CCc6cccc(C(=O)Nc7nc8ccccc8s7)c6C5)n4)cc3S(=O)(=O)C(F)(F)F)CC2)c1 [I-167] | – | – | – | – | 100 to 1000 | – |
| Cc1ncsc1-c1ccc([C@H](C)NC(=O)[C@@H]2C[C@@H](O)CN2C(=O)C(c2cc(OC3CC4(C3)CN(C(=O)c3nc(N5CCc6cccc(C(=O)Nc7nc8ccccc8s7)c6C5)ccc3-c3cnn(CC5CCCCC5)c3C)C4)no2)C(C)C)cc1 (stereo partly drawn) [I-237] | > 75 | < 10 | 50 to 75 | 100 to 500 | – | – |
| Cc1ncsc1-c1ccc(CNC(=O)[C@@H]2C[C@@H](O)CN2C(=O)[C@@H](NC(=O)C2(F)CC2)C(C)(C)C)c(OCC2CCN(CC[C@H](CSc3ccccc3)Nc3ccc(S(=O)(=O)NC(=O)c4ccc(N5CCN(CC6=C(c7ccc(Cl)cc7)CCC(C)(C)C6)CC5)cc4)cc3S(=O)(=O)C(F)(F)F)CC2)c1 [I-249] | > 75 | < 10 | < 50 | > 1000 | – | – |
| C#Cc1ccc([C@H](CO)NC(=O)[C@@H]2C[C@@H](O)CN2C(=O)[C@@H](NC(=O)C2CCN(c3ccc(S(=O)(=O)NC(=O)c4nc(N5CCc6cccc(C(=O)Nc7nc8ccccc8s7)c6C5)ccc4-c4cnn(CC5CCCCC5)c4C)cc3)CC2)C(C)(C)C)cc1 [I-242] | > 75 | < 10 | > 75 | 10 to 100 | – | – |
| Cc1ncsc1-c1ccc([C@H](C)NC(=O)[C@@H]2C[C@@H](O)CN2C(=O)C(c2cc(OC3CN(c4ccc(S(=O)(=O)NC(=O)c5nc(N6CCc7cccc(C(=O)Nc8nc9ccccc9s8)c7C6)ccc5-c5cnn(CC6CCCCC6)c5C)cc4)C3)no2)C(C)C)cc1 (stereo partly drawn) [I-230] | > 75 | < 10 | > 75 | 10 to 100 | – | – |
| Cc1ncsc1-c1ccc([C@H](C)NC(=O)[C@@H]2C[C@@H](O)CN2C(=O)[C@@H](NC(=O)N2CC3(CC(N4CCN(C(=O)c5nc(N6CCc7cccc(C(=O)Nc8nc9ccccc9s8)c7C6)ccc5-c5cnn(CC6CCCCC6)c5C)CC4)C3)C2)C(C)(C)C)cc1 [I-248] | 50 to 75 | 10 to 100 | < 50 | > 1000 | – | – |
| Cc1ncsc1-c1ccc([C@H](C)NC(=O)[C@@H]2C[C@@H](O)CN2C(=O)[C@@H](c2cc(N3CC(N4CCC(NC(=O)c5nc(N6CCc7cccc(C(=O)Nc8nc9ccccc9s8)c7C6)ccc5-c5cnn(CC6CCCCC6)c5C)CC4)C3)no2)C(C)C)cc1 [I-236] | > 75 | < 10 | 50 to 75 | 100 to 500 | – | – |
| Cc1ncsc1-c1ccc([C@H](C)NC(=O)[C@@H]2C[C@@H](O)CN2C(=O)C(c2cc(OC3CCN(CCNC(=O)c4nc(N5CCc6cccc(C(=O)Nc7nc8ccccc8s7)c6C5)ccc4-c4cnn(CC5CCCCC5)c4C)CC3)no2)C(C)C)cc1 (stereo partly drawn) [I-234] | 50 to 75 | 10 to 100 | < 50 | > 1000 | – | – |
| Cc1ncsc1-c1ccc(CNC(=O)[C@@H]2C[C@@H](O)CN2C(=O)[C@@H](NC(=O)C2(F)CC2)C(C)(C)C)c(OCCCN2CCN(CC[C@H](CSc3ccccc3)Nc3ccc(S(=O)(=O)NC(=O)c4ccc(N5CCN(CC6=C(c7ccc(Cl)cc7)CCC(C)(C)C6)CC5)cc4)cc3S(=O)(=O)C(F)(F)F)CC2)c1 [I-132, (2S,4R)—N-(2-(3-(4-((R)-3-((4-(N-(4-(4-((4′-chloro-4,4-dimethyl-3,4,5,6-tetrahydro-[1,1′-biphenyl]-2-yl)methyl)piperazin-1-yl)benzoyl)sulfamoyl)-2-((trifluoromethyl)sulfonyl)phenyl)amino)-4-(phenylthio)butyl)piperazin-1-yl)propoxy)-4 (4-methylthiazol-5-yl)benzyl)-1-((S)-2-(1-fluorocyclopropanecarboxamido)-3,3-dimethylbutanoyl)-4-hydroxypyrrolidine-2-carboxamide] | – | 10 to 100 | – | – | – | > 75 |
| Cc1ncsc1-c1ccc([C@H](C)NC(=O)[C@@H]2C[C@@H](O)CN2C(=O)[C@@H](NC(=O)N2CCC(CN3CCN(CC#Cc4ccc(OCCCc5sc(N6CCc7cccc(C(=O)Nc8nc9ccccc9s8)c7C6)nc5C(=O)O)c(F)c4)CC3)CC2)C(C)(C)C)cc1 [I-72] | < 50 | – | < 50 | 10 to 100 | – | – |
| Cc1ncsc1-c1ccc([C@H](C)NC(=O)[C@@H]2C[C@@H](O)CN2C(=O)[C@@H](NC(=O)CCC2(Cn3ncc(-c4ccc(N5CCc6cccc(C(=O)Nc7nc8ccccc8s7)c6C5)nc4C(=O)O)c3C)CCCCC2)C(C)(C)C)cc1 [I-128, 6-(8-(benzo[d]thiazol-2-ylcarbamoyl)-3,4-dihydroisoquinolin-2 (1H)-yl)-3-(1-((1-(3-(((S)-1-((2S,4R)-4-hydroxy-2-(((S)-1-(4-(4-methylthiazol-5-yl)phenyl)ethyl)carbamoyl)pyrrolidin-1-yl)-3,3-dimethyl-1-oxobutan-2-yl)amino)-3-oxopropyl)cyclohexyl)methyl)-5-methyl-1H-pyrazol-4-yl)picolinic acid] | < 50 | > 1000 | – | – | – | – |
| Cc1ncsc1-c1ccc([C@H](C)NC(=O)[C@@H]2C[C@@H](O)CN2C(=O)[C@@H](NC(=O)CCCC(=O)N(C)CC#Cc2ccc(OCCCc3sc(N4CCc5cccc(C(=O)Nc6nc7ccccc7s6)c5C4)nc3C(=O)O)c(F)c2)C(C)(C)C)cc1 [I-2] | > 75 | 100 to 500 | – | – | – | – |
| Cc1ncsc1-c1ccc(CNC(=O)[C@@H]2C[C@@H](O)CN2C(=O)[C@@H](NC(=O)CCCC(=O)N(C)CCN(C)c2cc3c(c(C(=O)Nc4nc5ccccc5s4)c2)CN(c2ccc(-c4cnn(CC5CCCCC5)c4C)c(C(=O)O)n2)CC3)C(C)(C)C)cc1 [I-109] | < 50 | > 1000 | – | – | – | – |
